Results reported in patent US9128087B2, “Nuclear receptor assay” (PamGene B.V., priority 2006, dated 2015).

Target: T1, PPAR gamma (Homo sapiens, UniProt P37231)
T1 construct: were incubated with GST-tagged PPAR gamma LBD domain (Invitrogen); purchased Invitrogen
T1 sequence (P37231 238-503 limits assumed): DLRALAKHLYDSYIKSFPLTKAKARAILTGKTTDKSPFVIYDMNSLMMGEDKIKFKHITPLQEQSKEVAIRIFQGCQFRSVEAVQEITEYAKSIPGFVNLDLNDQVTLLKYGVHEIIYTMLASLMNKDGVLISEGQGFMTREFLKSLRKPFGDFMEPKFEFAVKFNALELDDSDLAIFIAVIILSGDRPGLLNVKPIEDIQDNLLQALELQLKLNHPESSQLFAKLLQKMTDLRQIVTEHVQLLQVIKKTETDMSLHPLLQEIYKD
Assay: PamChip microarray binding of PPAR gamma LBD to 48 co-regulator derived peptides
Assay type: biochemical
Details: 1E-3.7 M ligand compared to array without ligand
Experimental: A microarray set-up was prepared comprising 48 peptides immobilized, i.e., a set of 48 co-regulator-derived motifs corresponding to SEQ ID NOs 1, 3-13, 15-46, and 50-53. In this experiment each peptide was present once on the array and at a single peptide concentration (1E-1 M spotting concentration). Preparation of these chips was as described in Example 1. Twelve wells of a 96 well plate (FIG. 2A(a)), each well comprising the same peptide microarray, were incubated with GST-tagged PPAR gamma LBD domain (Invitrogen), and 11 different concentrations of ligand and 1 control (absence of ligand). […]
FIG. 2A(b) represents the top view of a row of wells in a 96-well plate (FIG. 2A(a)), showing the fluorescence results obtained for the PAR gamma interaction, induced by GW1929, with a the 48 peptide motives. A magnification is shown of the fluorescence image of the microarray incubated with the highest concentration (1E-3.7 M) of GW1929. […] However, when the effect of GW1929 is read out on peptide 45 (SEQ ID NO. 45), derived from PPRB (PPAR binding protein), this ligand is characterized as a binding agonist. […] As said, for all peptides an EC50 value could be determined, but in FIG. 3 only the values that could be determined accurately (regression coefficient of the fit better than 0.7) are represented.

Substance: GW1929
- binding of PPAR gamma to peptide 31 (SEQ ID NO. 31, NCOR1): decreased binding
- binding of PPAR gamma to peptide 45 (SEQ ID NO. 45, PPRB): increase binding
